{
  "source": "paper PMC12090182",
  "about": "“Repurposing of the RIPK1-Selective Benzo[1,4]oxazepin-4-one Scaffold for the Development of a Type III LIMK1/2 Inhibitor” (ACS Chemical Biology, 2025)",
  "test_in_all_cases": "scanMAX KINOMEscan (Eurofins)",
  "format_in_all_cases": "binding",
  "key": {"RIPK2": {"biological_target": "RIPK2 (Homo sapiens, UniProt O43353)", "conditions": "1000 nM, read-out: Percent Control", "description": "(§1) Supplement cb5c00097_si_002.xlsx, sheet \"Table S6 (Eurofins Selectivity)\" | column: Percent Control"}, "PIM2": {"biological_target": "PIM2 (Homo sapiens, UniProt Q9P1W9)", "conditions": "1000 nM, read-out: Percent Control", "description": "as §1"}, "CIT": {"biological_target": "CIT (Homo sapiens, UniProt O14578)", "conditions": "1000 nM, read-out: Percent Control", "description": "as §1"}, "ASK1": {"biological_target": "ASK1 (Homo sapiens, UniProt Q99683)", "sequence (Q99683 whole entry)": "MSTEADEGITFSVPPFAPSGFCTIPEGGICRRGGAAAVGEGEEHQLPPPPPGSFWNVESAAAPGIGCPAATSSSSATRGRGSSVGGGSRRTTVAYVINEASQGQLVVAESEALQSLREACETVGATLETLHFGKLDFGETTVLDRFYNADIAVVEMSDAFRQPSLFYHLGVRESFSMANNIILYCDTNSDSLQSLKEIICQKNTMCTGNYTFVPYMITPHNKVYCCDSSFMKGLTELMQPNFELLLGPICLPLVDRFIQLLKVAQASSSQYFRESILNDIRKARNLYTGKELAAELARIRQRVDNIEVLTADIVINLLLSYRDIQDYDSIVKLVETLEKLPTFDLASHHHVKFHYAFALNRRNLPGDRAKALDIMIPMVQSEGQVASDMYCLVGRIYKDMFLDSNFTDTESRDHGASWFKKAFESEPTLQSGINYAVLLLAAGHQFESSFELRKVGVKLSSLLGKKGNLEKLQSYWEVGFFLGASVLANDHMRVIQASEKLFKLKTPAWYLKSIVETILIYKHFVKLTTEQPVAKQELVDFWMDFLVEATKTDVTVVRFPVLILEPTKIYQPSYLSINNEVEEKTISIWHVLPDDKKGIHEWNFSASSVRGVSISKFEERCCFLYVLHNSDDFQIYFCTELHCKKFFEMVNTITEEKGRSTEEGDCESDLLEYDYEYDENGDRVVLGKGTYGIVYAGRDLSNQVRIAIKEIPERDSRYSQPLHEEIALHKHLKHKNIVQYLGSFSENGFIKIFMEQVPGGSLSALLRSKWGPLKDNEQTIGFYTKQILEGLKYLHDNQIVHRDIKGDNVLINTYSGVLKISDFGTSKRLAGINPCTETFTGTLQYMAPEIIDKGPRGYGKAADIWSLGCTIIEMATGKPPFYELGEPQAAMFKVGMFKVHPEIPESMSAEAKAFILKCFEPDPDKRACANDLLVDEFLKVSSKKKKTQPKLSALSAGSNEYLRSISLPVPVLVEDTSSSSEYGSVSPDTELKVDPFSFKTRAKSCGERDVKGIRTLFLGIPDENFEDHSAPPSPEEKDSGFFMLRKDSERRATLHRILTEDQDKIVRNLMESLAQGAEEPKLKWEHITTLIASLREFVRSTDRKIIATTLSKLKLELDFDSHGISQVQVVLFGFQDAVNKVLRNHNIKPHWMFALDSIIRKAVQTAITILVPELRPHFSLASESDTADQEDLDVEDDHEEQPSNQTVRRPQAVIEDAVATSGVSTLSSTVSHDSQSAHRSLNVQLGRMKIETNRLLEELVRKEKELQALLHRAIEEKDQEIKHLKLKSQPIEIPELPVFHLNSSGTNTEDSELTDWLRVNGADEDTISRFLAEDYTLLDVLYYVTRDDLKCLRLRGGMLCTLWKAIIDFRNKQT", "conditions": "read-out: Percent Control", "description": "as §1"}, "PKN1": {"biological_target": "PKN1 (Homo sapiens, UniProt Q16512)", "sequence (Q16512 whole entry)": "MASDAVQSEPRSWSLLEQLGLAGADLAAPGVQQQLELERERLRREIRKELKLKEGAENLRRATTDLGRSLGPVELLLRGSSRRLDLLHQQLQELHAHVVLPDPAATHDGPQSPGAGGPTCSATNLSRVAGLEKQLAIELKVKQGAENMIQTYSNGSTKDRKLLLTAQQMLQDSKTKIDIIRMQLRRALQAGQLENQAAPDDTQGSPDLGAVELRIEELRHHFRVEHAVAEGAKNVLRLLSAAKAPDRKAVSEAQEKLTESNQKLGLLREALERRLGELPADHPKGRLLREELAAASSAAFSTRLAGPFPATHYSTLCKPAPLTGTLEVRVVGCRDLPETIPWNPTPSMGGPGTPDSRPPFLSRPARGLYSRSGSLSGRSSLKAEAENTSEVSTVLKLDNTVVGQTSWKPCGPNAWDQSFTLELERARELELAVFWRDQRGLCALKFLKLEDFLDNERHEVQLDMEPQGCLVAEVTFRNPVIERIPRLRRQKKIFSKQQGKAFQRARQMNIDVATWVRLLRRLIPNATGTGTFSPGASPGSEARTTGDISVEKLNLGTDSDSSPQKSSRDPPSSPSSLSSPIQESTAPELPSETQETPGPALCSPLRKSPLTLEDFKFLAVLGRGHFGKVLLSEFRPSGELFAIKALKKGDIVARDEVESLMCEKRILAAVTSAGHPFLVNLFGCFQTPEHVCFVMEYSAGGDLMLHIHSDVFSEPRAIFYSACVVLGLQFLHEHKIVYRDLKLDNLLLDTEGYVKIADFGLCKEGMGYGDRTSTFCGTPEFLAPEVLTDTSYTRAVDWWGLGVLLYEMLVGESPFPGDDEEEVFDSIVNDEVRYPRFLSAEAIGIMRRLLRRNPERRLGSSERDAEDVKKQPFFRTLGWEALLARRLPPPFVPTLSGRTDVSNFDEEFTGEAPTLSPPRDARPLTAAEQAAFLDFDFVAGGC", "conditions": "read-out: Percent Control", "description": "as §1"}, "PLK1": {"biological_target": "PLK1 (Homo sapiens, UniProt P53350)", "conditions": "1000 nM, read-out: Percent Control", "description": "as §1"}, "EPHA8": {"biological_target": "EPHA8 (Homo sapiens, UniProt P29322)", "conditions": "1000 nM, read-out: Percent Control", "description": "as §1"}, "FLT3-autoinhibited": {"biological_target": "FLT3-autoinhibited (Homo sapiens, UniProt P36888)", "conditions": "1000 nM, read-out: Percent Control", "description": "as §1"}, "CSNK1D": {"biological_target": "CSNK1D (Homo sapiens, UniProt P48730)", "conditions": "1000 nM, read-out: Percent Control", "description": "as §1"}, "ICK": {"biological_target": "ICK (Homo sapiens, UniProt Q9UPZ9)", "conditions": "1000 nM, read-out: Percent Control", "description": "as §1"}, "MKNK1": {"biological_target": "MKNK1 (Homo sapiens, UniProt Q9BUB5)", "conditions": "1000 nM, read-out: Percent Control", "description": "as §1"}, "SRC": {"biological_target": "SRC (Homo sapiens, UniProt P12931)", "conditions": "compound concentration 100 nM; Entrez SRC; read-out: Percent Control", "description": "as §1"}, "CAMK1G": {"biological_target": "CAMK1G (Homo sapiens, UniProt Q96NX5)", "conditions": "1000 nM, read-out: Percent Control", "description": "as §1"}, "IRAK1": {"biological_target": "IRAK1 (Homo sapiens, UniProt P51617)", "conditions": "read-out: Percent Control", "description": "as §1"}, "CSNK1G1": {"biological_target": "CSNK1G1 (Homo sapiens, UniProt Q9HCP0)", "conditions": "1000 nM, read-out: Percent Control", "description": "as §1"}, "CDK2": {"biological_target": "CDK2 (Homo sapiens, UniProt P24941)", "conditions": "1000 nM, read-out: Percent Control", "description": "as §1"}, "LOK": {"biological_target": "LOK (Homo sapiens, UniProt O94804)", "conditions": "1000 nM, read-out: Percent Control", "description": "as §1"}, "ERBB2": {"biological_target": "ERBB2 (Homo sapiens, UniProt P04626)", "sequence (P04626 23-1255)": "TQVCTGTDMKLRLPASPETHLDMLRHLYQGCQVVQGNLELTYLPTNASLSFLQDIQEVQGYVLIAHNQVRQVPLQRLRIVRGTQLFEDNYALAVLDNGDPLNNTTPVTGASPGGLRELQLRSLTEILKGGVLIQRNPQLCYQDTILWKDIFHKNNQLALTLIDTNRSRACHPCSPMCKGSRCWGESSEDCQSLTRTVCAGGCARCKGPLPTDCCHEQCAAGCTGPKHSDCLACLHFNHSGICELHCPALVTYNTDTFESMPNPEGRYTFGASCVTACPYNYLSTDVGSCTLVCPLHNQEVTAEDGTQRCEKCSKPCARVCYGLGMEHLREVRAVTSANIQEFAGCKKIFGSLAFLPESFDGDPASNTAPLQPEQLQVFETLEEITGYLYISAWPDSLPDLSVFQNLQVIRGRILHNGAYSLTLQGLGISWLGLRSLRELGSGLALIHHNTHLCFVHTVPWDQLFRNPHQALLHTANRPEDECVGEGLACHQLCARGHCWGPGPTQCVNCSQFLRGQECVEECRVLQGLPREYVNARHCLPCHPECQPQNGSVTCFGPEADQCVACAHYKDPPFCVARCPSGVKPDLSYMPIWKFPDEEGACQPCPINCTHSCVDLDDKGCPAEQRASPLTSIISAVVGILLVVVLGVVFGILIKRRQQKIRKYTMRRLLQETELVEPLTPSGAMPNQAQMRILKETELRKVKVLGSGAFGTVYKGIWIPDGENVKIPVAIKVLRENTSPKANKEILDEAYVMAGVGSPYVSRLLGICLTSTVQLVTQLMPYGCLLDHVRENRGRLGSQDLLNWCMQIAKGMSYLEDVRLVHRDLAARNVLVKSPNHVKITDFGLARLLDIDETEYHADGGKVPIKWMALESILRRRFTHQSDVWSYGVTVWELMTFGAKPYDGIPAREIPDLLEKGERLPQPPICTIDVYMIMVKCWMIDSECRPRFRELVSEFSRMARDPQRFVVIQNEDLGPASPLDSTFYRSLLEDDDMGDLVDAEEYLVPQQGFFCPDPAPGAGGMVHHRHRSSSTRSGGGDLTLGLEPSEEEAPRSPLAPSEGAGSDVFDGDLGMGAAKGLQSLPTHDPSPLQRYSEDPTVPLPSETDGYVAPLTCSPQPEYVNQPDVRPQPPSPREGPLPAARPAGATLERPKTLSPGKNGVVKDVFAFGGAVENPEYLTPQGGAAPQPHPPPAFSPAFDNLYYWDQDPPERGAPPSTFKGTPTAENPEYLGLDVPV", "conditions": "read-out: Percent Control", "description": "as §1"}, "PLK2": {"biological_target": "PLK2 (Homo sapiens, UniProt Q9NYY3)", "conditions": "compound concentration 100 nM; Entrez PLK2; read-out: Percent Control", "description": "as §1"}, "DCAMKL3": {"biological_target": "DCAMKL3 (Homo sapiens, UniProt Q9C098)", "conditions": "read-out: Percent Control", "description": "as §1"}, "TAOK2": {"biological_target": "TAOK2 (Homo sapiens, UniProt Q9UL54)", "conditions": "1000 nM, read-out: Percent Control", "description": "as §1"}, "CDKL3": {"biological_target": "CDKL3 (Homo sapiens, UniProt Q8IVW4)", "sequence (Q8IVW4 whole entry)": "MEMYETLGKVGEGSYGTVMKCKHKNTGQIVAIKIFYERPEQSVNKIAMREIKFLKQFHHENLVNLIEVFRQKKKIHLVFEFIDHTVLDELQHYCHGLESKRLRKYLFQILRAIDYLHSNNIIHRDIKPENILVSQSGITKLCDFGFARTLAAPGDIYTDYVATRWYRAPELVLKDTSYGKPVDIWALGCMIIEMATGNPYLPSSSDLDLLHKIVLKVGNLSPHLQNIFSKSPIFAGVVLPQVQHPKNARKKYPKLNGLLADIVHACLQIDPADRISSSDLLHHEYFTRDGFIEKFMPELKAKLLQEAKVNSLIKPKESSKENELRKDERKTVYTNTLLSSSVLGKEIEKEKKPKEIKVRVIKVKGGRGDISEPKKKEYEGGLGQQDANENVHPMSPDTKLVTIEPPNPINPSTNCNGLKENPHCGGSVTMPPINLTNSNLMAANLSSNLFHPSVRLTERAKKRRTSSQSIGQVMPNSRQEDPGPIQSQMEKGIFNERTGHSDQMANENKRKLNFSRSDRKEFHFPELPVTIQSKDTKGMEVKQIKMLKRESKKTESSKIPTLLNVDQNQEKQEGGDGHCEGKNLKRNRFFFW", "conditions": "read-out: Percent Control", "description": "as §1"}, "TRKC": {"biological_target": "TRKC (Homo sapiens, UniProt Q16288)", "conditions": "1000 nM, read-out: Percent Control", "description": "as §1"}, "PRKD2": {"biological_target": "PRKD2 (Homo sapiens, UniProt Q9BZL6)", "conditions": "1000 nM, read-out: Percent Control", "description": "as §1"}, "OSR1": {"biological_target": "OSR1 (Homo sapiens, UniProt O95747)", "conditions": "1000 nM, read-out: Percent Control", "description": "as §1"}, "ABL1-nonphosphorylated": {"biological_target": "ABL1-nonphosphorylated (Homo sapiens, UniProt P00519)", "conditions": "read-out: Percent Control", "description": "as §1"}, "PAK4": {"biological_target": "PAK4 (Homo sapiens, UniProt O96013)", "conditions": "1000 nM, read-out: Percent Control", "description": "as §1"}, "DCAMKL1": {"biological_target": "DCAMKL1 (Homo sapiens, UniProt O15075)", "conditions": "read-out: Percent Control", "description": "as §1"}, "FLT3(ITD)": {"tested_on": "FLT3(ITD)", "conditions": "1000 nM", "description": "as §1"}, "[1]": {"biological_target": "RPS6KA5(Kin.Dom.1-N-terminal) (Homo sapiens, UniProt O75582)", "conditions": "compound concentration 100 nM; Entrez RPS6KA5; read-out: Percent Control", "description": "as §1"}, "MEK2": {"biological_target": "MEK2 (Homo sapiens, UniProt P36507)", "conditions": "compound concentration 100 nM; Entrez MAP2K2; read-out: Percent Control", "description": "as §1"}, "EPHA2": {"biological_target": "EPHA2 (Homo sapiens, UniProt P29317)", "sequence (P29317 24-976)": "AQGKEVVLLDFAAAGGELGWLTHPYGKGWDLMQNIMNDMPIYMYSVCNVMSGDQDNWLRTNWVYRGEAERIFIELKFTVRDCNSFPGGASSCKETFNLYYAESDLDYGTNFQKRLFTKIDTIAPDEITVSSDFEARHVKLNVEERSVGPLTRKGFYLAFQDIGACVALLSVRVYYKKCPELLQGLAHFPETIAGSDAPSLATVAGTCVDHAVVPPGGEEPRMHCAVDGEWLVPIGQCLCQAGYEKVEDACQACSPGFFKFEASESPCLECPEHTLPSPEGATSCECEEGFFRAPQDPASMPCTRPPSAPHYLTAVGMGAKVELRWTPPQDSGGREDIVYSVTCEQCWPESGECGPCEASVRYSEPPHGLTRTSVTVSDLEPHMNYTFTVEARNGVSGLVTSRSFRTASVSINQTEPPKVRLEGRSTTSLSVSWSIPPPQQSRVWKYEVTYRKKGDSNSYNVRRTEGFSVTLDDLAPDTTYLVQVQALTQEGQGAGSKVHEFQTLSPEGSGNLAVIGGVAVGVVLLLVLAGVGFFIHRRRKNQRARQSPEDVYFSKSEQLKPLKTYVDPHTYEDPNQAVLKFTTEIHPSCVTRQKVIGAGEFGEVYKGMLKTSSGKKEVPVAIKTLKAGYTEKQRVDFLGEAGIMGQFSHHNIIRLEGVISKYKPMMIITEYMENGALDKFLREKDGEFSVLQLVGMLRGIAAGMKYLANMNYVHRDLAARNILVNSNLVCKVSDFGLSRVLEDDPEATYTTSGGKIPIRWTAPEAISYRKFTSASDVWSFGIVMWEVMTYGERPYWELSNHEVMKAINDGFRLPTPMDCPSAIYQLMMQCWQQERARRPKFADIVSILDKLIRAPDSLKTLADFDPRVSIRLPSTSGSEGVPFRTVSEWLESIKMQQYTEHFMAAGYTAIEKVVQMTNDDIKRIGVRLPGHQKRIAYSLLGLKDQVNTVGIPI", "conditions": "read-out: Percent Control", "description": "as §1"}, "VEGFR2": {"biological_target": "VEGFR2 (Homo sapiens, UniProt P35968)", "conditions": "1000 nM, read-out: Percent Control", "description": "as §1"}, "JNK1": {"biological_target": "JNK1 (Homo sapiens, UniProt P45983)", "conditions": "compound concentration 100 nM; Entrez MAPK8; read-out: Percent Control", "description": "as §1"}, "MELK": {"biological_target": "MELK (Homo sapiens, UniProt Q14680)", "conditions": "compound concentration 100 nM; Entrez MELK; read-out: Percent Control", "description": "as §1"}, "TXK": {"biological_target": "TXK (Homo sapiens, UniProt P42681)", "conditions": "1000 nM, read-out: Percent Control", "description": "as §1"}, "ABL2": {"biological_target": "ABL2 (Homo sapiens, UniProt P42684)", "conditions": "read-out: Percent Control", "description": "as §1"}},
  "data": [
    {"smiles": "CN1C(=O)[C@@H](N2CCc3c(nn(Cc4ccccc4)c3C(N)=O)C2=O)COc2cc(Cl)ccc21", "note": "[Compound 10, (S)-2-benzyl-6-(8-chloro-5-methyl-4-oxo-2,3,4,5-tetrahydrobenzo[b][1,4]oxazepin-3-yl)-7-oxo-4,5,6,7-tetrahydro-2H-pyrazolo[3,4-c]pyridine-3-carboxamide]", "values": [
      {"measurement": "remaining binding at 1 µM", "setting": "RIPK2", "value": 80, "unit": "%"},
      {"measurement": "remaining binding at 1 µM", "setting": "PIM2", "value": 91, "unit": "%"},
      {"measurement": "remaining binding at 1 µM", "setting": "CIT", "value": 79, "unit": "%"},
      {"measurement": "remaining binding at 1 µM", "setting": "ASK1; 1000 nM", "value": 100, "unit": "%"},
      {"measurement": "remaining binding at 0.1 µM", "setting": "ASK1; compound concentration 100 nM, Entrez MAP3K5", "value": 91, "unit": "%"},
      {"measurement": "remaining binding at 1 µM", "setting": "PKN1; 1000 nM", "value": 98, "unit": "%"},
      {"measurement": "remaining binding at 0.1 µM", "setting": "PKN1; compound concentration 100 nM, Entrez PKN1", "value": 86, "unit": "%"},
      {"measurement": "remaining binding at 1 µM", "setting": "PLK1", "value": 73, "unit": "%"},
      {"measurement": "remaining binding at 1 µM", "setting": "EPHA8", "value": 97, "unit": "%"},
      {"measurement": "remaining binding at 1 µM", "setting": "FLT3-autoinhibited", "value": 94, "unit": "%"},
      {"measurement": "remaining binding at 1 µM", "setting": "CSNK1D", "value": 87, "unit": "%"},
      {"measurement": "remaining binding at 1 µM", "setting": "ICK", "value": 85, "unit": "%"},
      {"measurement": "remaining binding at 1 µM", "setting": "MKNK1", "value": 77, "unit": "%"},
      {"measurement": "remaining binding at 0.1 µM", "setting": "SRC", "value": 85, "unit": "%"},
      {"measurement": "remaining binding at 1 µM", "setting": "CAMK1G", "value": 88, "unit": "%"},
      {"measurement": "remaining binding at 1 µM", "setting": "IRAK1; 1000 nM", "value": 100, "unit": "%"},
      {"measurement": "remaining binding at 0.1 µM", "setting": "IRAK1; compound concentration 100 nM, Entrez IRAK1", "value": 100, "unit": "%"},
      {"measurement": "remaining binding at 1 µM", "setting": "CSNK1G1", "value": 91, "unit": "%"},
      {"measurement": "remaining binding at 1 µM", "setting": "CDK2", "value": 92, "unit": "%"},
      {"measurement": "remaining binding at 1 µM", "setting": "LOK", "value": 97, "unit": "%"},
      {"measurement": "remaining binding at 1 µM", "setting": "ERBB2; 1000 nM", "value": 100, "unit": "%"},
      {"measurement": "remaining binding at 0.1 µM", "setting": "ERBB2; compound concentration 100 nM, Entrez ERBB2", "value": 100, "unit": "%"},
      {"measurement": "remaining binding at 0.1 µM", "setting": "PLK2", "value": 100, "unit": "%"},
      {"measurement": "remaining binding at 1 µM", "setting": "DCAMKL3; 1000 nM", "value": 100, "unit": "%"},
      {"measurement": "remaining binding at 0.1 µM", "setting": "DCAMKL3; compound concentration 100 nM, Entrez DCLK3", "value": 75, "unit": "%"},
      {"measurement": "remaining binding at 1 µM", "setting": "TAOK2", "value": 90, "unit": "%"},
      {"measurement": "remaining binding at 1 µM", "setting": "CDKL3; 1000 nM", "value": 100, "unit": "%"},
      {"measurement": "remaining binding at 0.1 µM", "setting": "CDKL3; compound concentration 100 nM, Entrez CDKL3", "value": 91, "unit": "%"},
      {"measurement": "remaining binding at 1 µM", "setting": "TRKC", "value": 64, "unit": "%"},
      {"measurement": "remaining binding at 1 µM", "setting": "PRKD2", "value": 96, "unit": "%"},
      {"measurement": "remaining binding at 1 µM", "setting": "OSR1", "value": 74, "unit": "%"},
      {"measurement": "remaining binding at 1 µM", "setting": "ABL1-nonphosphorylated; 1000 nM", "value": 100, "unit": "%"},
      {"measurement": "remaining binding at 0.1 µM", "setting": "ABL1-nonphosphorylated; compound concentration 100 nM, Entrez ABL1", "value": 100, "unit": "%"},
      {"measurement": "remaining binding at 1 µM", "setting": "PAK4", "value": 73, "unit": "%"},
      {"measurement": "remaining binding at 1 µM", "setting": "DCAMKL1; 1000 nM", "value": 100, "unit": "%"},
      {"measurement": "remaining binding at 0.1 µM", "setting": "DCAMKL1; compound concentration 100 nM, Entrez DCLK1", "value": 92, "unit": "%"},
      {"measurement": "Percent Control", "setting": "FLT3(ITD)", "value": 77, "unit": "%"},
      {"measurement": "remaining binding at 0.1 µM", "setting": "[1]", "value": 92, "unit": "%"},
      {"measurement": "remaining binding at 0.1 µM", "setting": "MEK2", "value": 94, "unit": "%"},
      {"measurement": "remaining binding at 1 µM", "setting": "EPHA2; 1000 nM", "value": 100, "unit": "%"},
      {"measurement": "remaining binding at 0.1 µM", "setting": "EPHA2; compound concentration 100 nM, Entrez EPHA2", "value": 100, "unit": "%"},
      {"measurement": "remaining binding at 1 µM", "setting": "VEGFR2", "value": 92, "unit": "%"},
      {"measurement": "remaining binding at 0.1 µM", "setting": "JNK1", "value": 79, "unit": "%"},
      {"measurement": "remaining binding at 0.1 µM", "setting": "MELK", "value": 93, "unit": "%"},
      {"measurement": "remaining binding at 1 µM", "setting": "TXK", "value": 86, "unit": "%"},
      {"measurement": "remaining binding at 1 µM", "setting": "ABL2; 1000 nM", "value": 100, "unit": "%"},
      {"measurement": "remaining binding at 0.1 µM", "setting": "ABL2; compound concentration 100 nM, Entrez ABL2", "value": 100, "unit": "%"}
    ]}
  ]
}
